pIC50: −log10 of the molar value.
Experiments:
JAK3 = molecular target: T1, JAK3 (Homo sapiens, UniProt P52333); experiment: Kinase activity test (γ33P-ATP isotopic method), JAK3; type: biochemical; settings: 33P-ATP 10 μM, 2 h reaction
T1 sequence (P52333 1-1124): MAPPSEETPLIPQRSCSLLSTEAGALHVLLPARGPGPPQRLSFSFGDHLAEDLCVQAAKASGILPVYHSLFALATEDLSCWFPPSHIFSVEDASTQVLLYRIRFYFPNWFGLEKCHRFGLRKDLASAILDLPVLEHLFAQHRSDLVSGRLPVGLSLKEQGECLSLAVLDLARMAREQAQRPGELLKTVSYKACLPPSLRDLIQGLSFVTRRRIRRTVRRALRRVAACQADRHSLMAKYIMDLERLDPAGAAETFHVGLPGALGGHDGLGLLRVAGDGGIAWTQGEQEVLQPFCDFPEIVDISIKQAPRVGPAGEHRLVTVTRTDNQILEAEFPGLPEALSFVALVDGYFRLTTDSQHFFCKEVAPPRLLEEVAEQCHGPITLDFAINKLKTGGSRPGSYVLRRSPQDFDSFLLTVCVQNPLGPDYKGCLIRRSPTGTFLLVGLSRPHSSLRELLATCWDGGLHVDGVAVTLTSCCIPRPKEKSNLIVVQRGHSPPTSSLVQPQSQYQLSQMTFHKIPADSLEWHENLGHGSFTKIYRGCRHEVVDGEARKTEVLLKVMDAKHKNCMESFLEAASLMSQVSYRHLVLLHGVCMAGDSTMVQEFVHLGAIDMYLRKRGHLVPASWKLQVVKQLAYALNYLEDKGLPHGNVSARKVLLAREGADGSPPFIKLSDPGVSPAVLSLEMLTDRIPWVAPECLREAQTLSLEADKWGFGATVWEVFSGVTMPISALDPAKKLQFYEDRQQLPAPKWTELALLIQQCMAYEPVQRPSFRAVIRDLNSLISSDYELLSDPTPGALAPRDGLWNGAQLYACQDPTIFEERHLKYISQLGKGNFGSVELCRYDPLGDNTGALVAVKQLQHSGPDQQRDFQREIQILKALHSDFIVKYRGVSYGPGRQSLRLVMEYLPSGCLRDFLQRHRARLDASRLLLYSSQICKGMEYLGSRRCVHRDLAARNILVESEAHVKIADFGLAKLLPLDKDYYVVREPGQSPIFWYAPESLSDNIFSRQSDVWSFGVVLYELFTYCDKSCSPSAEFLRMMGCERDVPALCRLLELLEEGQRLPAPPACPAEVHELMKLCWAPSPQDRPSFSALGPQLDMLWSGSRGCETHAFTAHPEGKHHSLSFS
Protocol: (§1) This experiment adopted a γ^33p-ATP isotopic test method to test the inhibitory effect of a compound on kinases JAK1, JAK2, JAK3 and TYK2, and obtained a half inhibitory concentration IC50 of the compound for inhibiting activity of the kinase.
(§2) 20 mM 4-hydroxyethylpiperazine ethanesulfonic acid buffer (Hepes, pH 7.5), 10 mM magnesium chloride (MgCl2), 1 mM ethylene glycol diethyl ether diamine tetraacetic acid (EGTA), 0.02% dodecyl polyethylene glycol ether (Brij35), 0.02 mg/ml bovine serum albumin (BSA), 0.1 mM sodium vanadate (Na3VO4), 2 mM dithiothreitol (DTT), and 1% dimethylsulfoxide (DMSO).
(§3) A compound is dissolved with 100% DMSO to a specific concentration, and then subjected to gradient dilution by an automatic sampling device to obtain the samples to be tested with different concentrations (DMSO solutions).
(§4) 3.1 diluting the reaction substrate with the basic reaction buffer;
(§5) 3.2 adding the kinase into the substrate solution, and gently mixing well;
(§6) 3.3 adding, by the automatic sampling system, the 100% DMSO diluted compounds with different concentrations into the kinase solution, and incubating for 20 min at room temperature; and
(§7) 3.4 adding ^33p-ATP (10 μM, 10 μCi/μl) at room temperature to initiate the kinase reaction for a duration of 2 h.
(§8) The unreacted ATP and the reaction-generated […] in the reaction were removed by an ion exchange filtering system, and then the amount of radioactivity of ^33p isotope in the substrate was detected.
(§9) According to the amount of radioactivity, the kinase activities in the systems added with the inhibitors of different concentrations were calculated, to obtain the inhibitors' effects of the compounds of different concentrations on the kinase activity; and fitting was performed with graphpad prism to obtain the inhibitory IC50 values of the compounds.

JAK1 = JAK1 (Homo sapiens, UniProt P23458); experiment: Kinase activity test (γ33P-ATP isotopic method), JAK1; type: biochemical; settings: for pIC50: 33P-ATP 10 μM, 2 h reaction; for activity in inhibiting the JAK1 kinase compared with Tofacitinib (in words): conclusion from Table 1
Protocol: as §1, §2, §3, §4, §5, §6, §7, §8, §9

JAK2 = JAK2 (Homo sapiens, UniProt O60674); experiment: Kinase activity test (γ33P-ATP isotopic method), JAK2; type: biochemical; settings: 33P-ATP 10 μM, 2 h reaction
Protocol: as §1, §2, §3, §4, §5, §6, §7, §8, §9

[1] = system: DNBS induced rat Crohn's disease model; experiment: Therapeutic activity in DNBS induced rat Crohn's disease model; type: in vivo; parameters: rat colon ulcer area: unit not given beside the values; settings: G3, 10 mg/kg-QD, 7 days, mean±SD
Protocol: Male wistar rats of 4-5 weeks old were adaptively fed for 5 days, and two days before the experiment, randomly divided into 6 groups:
Blank control group: G1 (Normal), 4 normal rats were selected and only given with 30% ethanol, 10 mL/kg.
0.5 mL of 50 mg/mL DNBS (DNBS dissolved in 30% ethanol) was injected into the colon of rats to induce enteritis in rats, for 40 rats in total. Eight of them were selected as model group G2 (Model), and the remaining 32 rats were administrated.
Administration group: the rats with DNBS induced enteritis were administered with ABT494 and the compound of Example 2 respectively and divided into G3-G6 groups, 8 rats/group. G3: ABT494, 10 mg/kg-QD; G4: Example 2, 0.3 mg/kg-BID; G5: Example 2, 1 mg/kg-BID; and G6: Example 2, 3 mg/kg-BID.
The rats were fasted, but fed with water for 48 hours, and a 5% glucose salt solution (10 mL/kg) was used as an energy supplement for experimental animals during the fasting period, once a day. On the day of experimental modeling, the fasting rats were anesthetized with Choutet (25 mg/kg), and then 0.5 mL of 50 mg/mL DNBS was injected from the anus to left colic flexure of the rat (about 8 cm to the anus) to induce rat enteritis. All rats were kept in a […] for 15 min until they were awaken, to prevent the backflow of DNBS. From the day of the experimental modeling, medication was given for 7 days.
After the DNBS modeling, the weights of the animals were measured and recorded every day, the daily activities of the animals were observed, and the abnormalities were recorded. During the experiment, the stool state of the rats was scored every day. On day 7, the rats were anesthetized with isoflurane (3-5%), blood was taken from the orbit, and the serum was separated and stored at −80° C. All animals were euthanized by cervical vertebra dis location after suffocation from excessive CO2 inhalation. The abdomen was cut, the colorectum was take out and longitudinally dissected, and the stool trait in the colorectum was scored. The colorectum was thoroughly rinsed with ice-cold PBS and then the ulcer surface was observed. The length and weight and ulcer area of the colon were recorded, the weight-length ratio (colon weight (g)/length (cm) ratio×100) was calculated, and the overall picture was taken. All intestinal tissue was longitudinally divided into two parts, where one part was fixed with 4% neutral […] and embedded with paraffin, and the rest colon sample was cryopreserved at −80° C.
Excel and Graphapad software were used for statistical analysis, and the results were expressed as mean±SD.

[2] = system: DSS induced mouse ulcerative colitis model; experiment: Efficacy test in DSS induced mouse ulcerative colitis model; type: in vivo; settings: 100 mg/kg group, once a day, mouse DSS model, DAI range 0-4
Excerpt: Mice of 6-7 weeks old were randomly grouped, 6 mice per group. Purified water was provided ad libitum to the mice in a negative control group, and a 2% solution of dextran sulfate sodium (DSS) was provided ad libitum to the mice in other groups, for 7 consecutive days. During the modeling, medication was given according to the groups, once a day for 7 days (the treatment groups and the mouse numbers can be adjusted according to the specific situation). Within 8-10 days later, the DSS-containing water was replaced with purified water, provided ad libitum to the mice. The normal administration continued for 3 days.
From the first day of administration, the general conditions such as metal state, eating, drinking and activities of the mice were respectively observed every day, the mice were weighed every day, and the animal stools were collected, evaluated for their traits and subjected to the occult blood test. The disease activity index (DAI) of experimental animals within 1-10 days were comprehensively assessed.
Scoring was performed according to the above-mentioned standards. The disease activity index (DAI) of each mouse was obtained by summing the scores of weight loss, stool trait and occult blood condition, to evaluate the disease activity. DAI=(score of weight loss+score of stool trait+score of bloody stool)/3, ranging from 0-4.
The experimental data was processed statistically, and the data are all expressed as mean±SD or mean±SME. The SPSS13.0 software was used for statistical analysis, and the differences among the groups were compared with t test (equal variance) or t′ test (unequal variance).

Chain of JAK1 (P23458 whole entry): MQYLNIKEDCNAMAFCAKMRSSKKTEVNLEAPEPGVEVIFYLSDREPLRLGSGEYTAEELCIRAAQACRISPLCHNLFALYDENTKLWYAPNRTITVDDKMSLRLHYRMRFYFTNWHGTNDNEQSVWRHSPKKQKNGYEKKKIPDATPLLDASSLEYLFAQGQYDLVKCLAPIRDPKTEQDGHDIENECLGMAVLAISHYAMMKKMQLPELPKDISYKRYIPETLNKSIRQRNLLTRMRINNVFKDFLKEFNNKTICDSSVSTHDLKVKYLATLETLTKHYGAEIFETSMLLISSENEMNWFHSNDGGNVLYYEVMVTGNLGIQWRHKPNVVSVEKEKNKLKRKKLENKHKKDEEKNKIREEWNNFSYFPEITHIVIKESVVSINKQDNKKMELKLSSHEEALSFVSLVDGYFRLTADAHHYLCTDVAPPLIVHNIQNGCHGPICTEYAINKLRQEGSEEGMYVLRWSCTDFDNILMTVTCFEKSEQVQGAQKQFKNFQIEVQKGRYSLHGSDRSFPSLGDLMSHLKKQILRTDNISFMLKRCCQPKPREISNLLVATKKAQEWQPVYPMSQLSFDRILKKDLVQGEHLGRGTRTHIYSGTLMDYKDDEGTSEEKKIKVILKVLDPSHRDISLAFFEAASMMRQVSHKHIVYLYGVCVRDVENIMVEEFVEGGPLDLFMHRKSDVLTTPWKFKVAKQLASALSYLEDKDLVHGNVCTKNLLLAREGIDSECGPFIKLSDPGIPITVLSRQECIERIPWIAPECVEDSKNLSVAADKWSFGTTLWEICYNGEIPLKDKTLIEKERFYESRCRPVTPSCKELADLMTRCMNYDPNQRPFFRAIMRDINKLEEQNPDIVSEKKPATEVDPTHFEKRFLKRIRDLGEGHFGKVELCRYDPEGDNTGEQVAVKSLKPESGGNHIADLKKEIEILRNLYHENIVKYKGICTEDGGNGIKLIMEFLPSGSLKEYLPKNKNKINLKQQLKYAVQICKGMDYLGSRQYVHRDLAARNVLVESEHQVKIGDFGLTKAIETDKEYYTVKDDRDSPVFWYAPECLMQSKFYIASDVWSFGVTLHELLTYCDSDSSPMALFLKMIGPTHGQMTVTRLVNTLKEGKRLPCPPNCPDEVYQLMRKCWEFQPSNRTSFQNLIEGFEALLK
Chain of JAK2 (O60674 whole entry): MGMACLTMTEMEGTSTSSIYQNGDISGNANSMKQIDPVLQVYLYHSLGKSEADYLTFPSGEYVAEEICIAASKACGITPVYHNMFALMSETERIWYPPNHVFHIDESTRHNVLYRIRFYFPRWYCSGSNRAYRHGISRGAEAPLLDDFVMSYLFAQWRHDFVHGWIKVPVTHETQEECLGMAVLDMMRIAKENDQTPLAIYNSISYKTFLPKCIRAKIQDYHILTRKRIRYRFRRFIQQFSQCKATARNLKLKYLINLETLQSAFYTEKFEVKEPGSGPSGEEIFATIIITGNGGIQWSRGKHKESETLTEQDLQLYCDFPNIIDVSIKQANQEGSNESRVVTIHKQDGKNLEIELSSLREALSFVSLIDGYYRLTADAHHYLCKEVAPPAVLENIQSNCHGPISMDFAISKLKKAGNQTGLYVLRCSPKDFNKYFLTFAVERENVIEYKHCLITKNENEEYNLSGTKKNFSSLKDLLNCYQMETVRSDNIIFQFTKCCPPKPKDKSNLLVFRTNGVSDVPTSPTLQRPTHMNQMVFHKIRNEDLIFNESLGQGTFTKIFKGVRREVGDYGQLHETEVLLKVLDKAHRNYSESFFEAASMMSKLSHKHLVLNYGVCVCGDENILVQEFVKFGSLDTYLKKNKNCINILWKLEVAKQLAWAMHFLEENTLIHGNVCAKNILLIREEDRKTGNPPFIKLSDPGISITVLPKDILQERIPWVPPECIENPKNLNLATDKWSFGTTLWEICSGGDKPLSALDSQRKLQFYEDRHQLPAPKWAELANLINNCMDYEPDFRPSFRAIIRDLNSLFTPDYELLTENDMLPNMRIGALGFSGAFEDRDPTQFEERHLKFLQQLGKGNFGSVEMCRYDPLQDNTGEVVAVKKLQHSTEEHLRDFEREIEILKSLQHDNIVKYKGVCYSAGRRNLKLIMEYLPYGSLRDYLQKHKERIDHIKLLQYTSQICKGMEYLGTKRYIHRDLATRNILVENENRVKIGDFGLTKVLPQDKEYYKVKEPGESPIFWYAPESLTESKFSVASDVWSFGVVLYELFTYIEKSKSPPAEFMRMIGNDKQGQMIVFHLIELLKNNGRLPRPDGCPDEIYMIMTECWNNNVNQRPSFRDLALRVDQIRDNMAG

pIC50 (JAK3) | pIC50 (JAK1) | pIC50 (JAK2) | SMILES | activity in inhibiting the JAK1 kinase compared with Tofacitinib (in words) (JAK1) | colon weight-length ratio ([1]; colon weight (g)/length (cm) ratio×100, model group G2 14.6±5.1) | rat colon ulcer area ([1]; model group G2 1.54±2.00) | DAI score on day 8 [2]
7.81 | 7.93 | 6.68 | NC(=O)c1cnc2[nH]ccc2c1NN1[C@@H]2CC[C@H]1C[C@@H](O)C2 [Example 11, 4-((3-hydroxyl-8-azabicyclo[3.2.1]octan-8-yl)amino)-1H-7-azaindole-5-carboxamide] |  |  |  | 
 | 7.28 |  | NC(=O)c1cnc2[nH]ccc2c1NN1C2CCC1COC2 [Example 10, 4-((3-oxa-8-azabicyclo[3.2.1]octan-8-yl)amino)-1H-7-azaindole-5-carboxamide] |  |  |  | 
7.67 | 7.62 | 6.45 | NC(=O)c1cnc2[nH]ccc2c1NN1CCC(C(=O)NCC(F)(F)F)CC1 [Example 19, 4-(4-(2,2,2-trifluoroethylcarbamoyl)piperidine-1-amino)-1H-7-azaindole-5-carboxamide] |  |  |  | 
8.05 | 8.94 | 7.39 | CC1CCC(C(=O)NCC(F)(F)F)CN1Nc1c(C(N)=O)cnc2[nH]ccc12 (stereo not shown) [Example 16, 4-(2-methyl-5-(2,2,2-trifluoroethylcarbamoyl)piperidine-1-amino)-1H-7-azaindole-5-carboxamide] |  |  |  | 
6.99 | 7.44 | 6.86 | CNC(=O)c1cnc2[nH]ccc2c1NN1CCC[C@H](C(=O)NCC(F)F)C1 [Example 22, (S)-4-((3-((2,2-difluoroethyl)carbamoyl)piperidin-1-yl)amino)-N-methyl-1H-7-pyrrolo[2,3-b]pyridine-5-carboxamide] |  |  |  | 
7.16 | 7.71 | 6.90 | CN(c1ccnc2[nH]ccc12)N1CCCC(C(=O)NCC#N)C1 (stereo not shown) [WO2016116025 WX14, reference compound] |  |  |  | 
7.66 | 8.97 | 7.35 | NC(=O)c1cnc2[nH]ccc2c1NN1CCC[C@H](C(=O)NC2CC2)C1 [Example 6, (S)-4-(3-(cyclopropylcarbamoyl)piperidine-1-amino)-1H-7-azaindole-5-carboxamide] |  |  |  | 
8.18 | 9.19 | 7.73 | CNC(=O)c1cnc2[nH]ccc2c1NN1CCC[C@H](C(=O)NCC(F)(F)F)C1 [Example 23] | higher activity in inhibiting the JAK1 kinase than the positive drug control Tofacitinib |  |  | 
 | 7.11 |  | NC(=O)c1cnc2[nH]ccc2c1NN1CCC2(CCNC2=O)CC1 [Example 14, 4-(1-keto-2,8-diazaspiro[4.5]decane-8-amino)-1H-7-azaindole-5-carboxamide] |  |  |  | 
 |  |  | CC[C@@H]1CN(C(=O)NCC(F)(F)F)C[C@@H]1c1cnc2cnc3[nH]ccc3n12 [ABT494, reference compound] |  | 13.4±5.2 | 1.37±1.72 | 
6.98 | 7.76 | 6.53 | CN(c1ccnc2[nH]ccc12)N1CCCC(C(=O)NCC(F)(F)F)C1 (stereo not shown) [WO2016116025 WX15, reference compound] |  |  |  | 
8.11 | 9.18 | 7.37 | NC(=O)c1cnc2[nH]ccc2c1NN1CCC(C(=O)NCC(F)(F)F)C1 (stereo not shown) [Example 9] | higher activity in inhibiting the JAK1 kinase than the positive drug control Tofacitinib |  |  | 
8.06 | 8.69 | 7.33 | CCOC(=O)[C@H]1CCCN(Nc2c(C(N)=O)cnc3[nH]ccc23)C1 [Example 8] |  |  |  | 
 |  |  | Nc1ccc(O)c(C(=O)O)c1 [mesalazine, reference compound] |  |  |  | 3.5
6.65 | 7.46 | 6.28 | NC(=O)c1cnc2[nH]ccc2c1NN1CCC[C@@H](C(=O)NCC(F)F)C1 [Example 4, (R)-4-(3-(2,2-difluoroethylcarbamoyl)piperidine-1-amino)-1H-7-azaindole-5-carboxamide] |  |  |  | 
